Assay results reported in US20260022096A1, “NOVEL SULFONAMIDES AND THEIR USE AS NEUROPROTECTIVE AND/OR NEURORESTORATIVE AGENTS” (GENECODE, priority 2022, published 2026).

Target: T1, GFRα1-RET (Homo sapiens, UniProt P56159)
T1 construct: expressed in transfected cells; host or cells: MG87 murine fibroblasts, stably transfected
T1 sequence (P56159 25-429 limits assumed): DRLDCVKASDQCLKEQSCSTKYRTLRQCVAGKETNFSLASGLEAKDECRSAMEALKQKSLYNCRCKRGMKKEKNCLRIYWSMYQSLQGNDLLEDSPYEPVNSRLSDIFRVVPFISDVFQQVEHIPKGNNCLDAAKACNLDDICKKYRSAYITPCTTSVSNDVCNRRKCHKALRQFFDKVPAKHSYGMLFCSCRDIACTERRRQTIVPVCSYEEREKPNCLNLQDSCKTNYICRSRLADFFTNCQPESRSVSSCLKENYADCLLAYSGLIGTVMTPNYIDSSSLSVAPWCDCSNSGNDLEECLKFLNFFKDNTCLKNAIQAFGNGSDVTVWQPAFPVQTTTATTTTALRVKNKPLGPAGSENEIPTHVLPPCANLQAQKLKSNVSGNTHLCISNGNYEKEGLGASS
Test: Elk1 reporter-gene (luciferase) assay in cells expressing GFRα1-RET
Format: cell-based
Conditions: MG87 murine fibroblasts stably transfected with PathDetect Elk-1, GFRα1 and RET, 6 concentrations, agonist/activator activity
Procedure: For ECso determination, a dose-response test was performed using 6 concentrations of each tested compound. Dose-response curves were fitted using the sigmoidal dose-response (variable slope) analysis in GraphPad Prism program (Graph Pad Inc) and ECso of agonist/activator activity was calculated. Dose-response experiments were all performed in duplicate, two times independently.

SMILES	EC50 [nM]
CN(C(C)(C)C)S(=O)(=O)c1cc(Cl)c(Cl)c(N2[C@@H]3CC[C@H]2CN(C(=O)c2ccc(F)cc2Cl)C3)c1 [compound 133, N-tert-butyl-3,4-dichloro-5-[(1S,5R)-3-(2-chloro-4-fluoro-benzoyl)-3,8-diazabicyclo[3.2.1]octan-8-yl]-N-methyl-benzenesulfonamide]	< 1000
CN(C(C)(C)C)S(=O)(=O)c1cc(Cl)c(OCCO)c(N2[C@@H]3CC[C@H]2CN(C(=O)c2ccc(F)cc2Cl)C3)c1 [compound 134]	< 1000
COCCOc1c(Cl)cc(S(=O)(=O)N(C)C(C)(C)C)cc1N1[C@@H]2CC[C@H]1CN(C(=O)c1ccc(F)cc1Cl)C2 [compound 135, N-tert-butyl-3-chloro-5-[(1S,5R)-3-(2-chloro-4-fluoro-benzoyl)-3,8-diazabicyclo[3.2.1]octan-8-yl]-4-(2-methoxyethoxy)-N-methyl-benzenesulfonamide]	< 1000
CN(C(C)(C)C)S(=O)(=O)c1cc(Cl)c(OCc2ccccc2)c(N2[C@@H]3CC[C@H]2CN(C(=O)c2ccc(F)cc2Cl)C3)c1 [compound 136, 4-benzyloxy-N-tert-butyl-3-chloro-5-[(1S,5R)-3-(2-chloro-4-fluoro-benzoyl)-3,8-diazabicyclo[3.2.1]octan-8-yl]-N-methyl-benzenesulfonamide]	< 1000
CN(C(C)(C)C)S(=O)(=O)c1cc(Cl)c(OCc2cccnc2)c(N2[C@@H]3CC[C@H]2CN(C(=O)c2ccc(F)cc2Cl)C3)c1 [compound 137]	< 1000
CN(C(C)(C)C)S(=O)(=O)c1cc(Cl)c(OCc2ccncc2)c(N2[C@@H]3CC[C@H]2CN(C(=O)c2ccc(F)cc2Cl)C3)c1 [compound 138, N-tert-butyl-3-chloro-5-[(1S,5R)-3-(2-chloro-4-fluoro-benzoyl)-3,8-diazabicyclo[3.2.1]octan-8-yl]-N-methyl-4-(4-pyridylmethoxy) benzenesulfonamide]	< 1000
CC(C)(C)NS(=O)(=O)c1cc(Cl)c(O)c(N2[C@@H]3CC[C@H]2CN(C(=O)c2ccc(F)cc2Cl)C3)c1F [compound 139, N-tert-butyl-5-chloro-3-[(1S,5R)-3-(2-chloro-4-fluoro-benzoyl)-3,8-diazabicyclo[3.2.1]octan-8-yl]-2-fluoro-4-hydroxy-benzenesulfonamide]	< 1000
